Measured values as given in article PMC9147192, “Small Molecule Arranged Thermal Proximity Coaggregation (smarTPCA)—A Novel Approach to Characterize Protein–Protein Interactions in Living Cells by Similar Isothermal Dose–Responses” (International Journal of Molecular Sciences, 2022).

Experiments:
ANP32E = target: T1, ANP32E (Homo sapiens, UniProt Q9BTT0); experiment: TPP-CCR in living HL-60 cells; format: cell-based
T1 construct: dose–responses (mean over replicates), derived from TPP-CCR experiments in living cells; endogenous in cells; host or cells: HL-60 cells (ATCC No. CCL-240)
Excerpt: (§1) Therefore, we performed TPP with compound concentration range (TPP-CCR) experiments according to published procedures. In brief, after preparing tryptic peptides from the non-denatured protein fractions (used for immunoblotting in the previous sections) applying the SP3 method, the peptides were labeled using TMT10plex, coding for inhibitor concentration, and the samples belonging to a TMT set were combined, offline high-pH fractionated, and analyzed by MS.
(§2) HL-60 cells were expanded as described above for CETSA and TPP-TR to 1.25 million cells per milliliter. […] A number of 2.5 million cells in 2 mL of medium were added to each tube and incubated (1 h, 37 °C). After centrifugation (300 rcf, 3 min, r.t.) and removing all of the supernating culture medium, the cells were washed once with 2 mL and once with 0.5 mL PBS (r.t.) by gently resuspending the cells, followed by centrifugation (300 rcf, 3 min, r.t.) and the complete removal of the supernatants.
(§3) After transferring the cells from the 2 mL Eppendorf tubes into correspondingly labeled PCR tubes (tube strips) using 100 µL of ice-cold PBS supplemented with protease inhibitors for resuspending the cells, the samples were further processed as described above for CETSA and TPP-TR, however, by applying a single treatment temperature of 51 °C.
(§4) For each sample set comprising ten compound concentration range samples, a same volume of the cell extracts containing the fraction of soluble, non-denatured proteins, corresponding to an average of 5 µg total protein, was used for further analysis. The calculated volume was respectively transferred into PCR tubes of a tube strip and supplemented with SDS sample buffer without DTT and bromophenol blue (final concentrations: 7.5% glycerol, 3% SDS, 37.5 mM Tris/HCl pH 7.0) and ddH2O to a final volume of 10 µL, respectively. Reduction and alkylation were performed by addition of 2.5 µL 100 mM dithiothreitol (DTT; incubation: 20 min, 56 °C, 1000 rpm in an Eppendorf ThermoMixer C, covering the tubes with aluminum foil to minimize condensation in the lids) and 3.33 µL 300 mM iodoacetamide (IAA; incubation: 15 min, r.t., in the dark without shaking), as well as 2.5 µL 100 mM DTT (incubation: 15 min, r.t., without shaking; quenching of excess of IAA). […] The beads were collected and washed (3× 200 µL 80% ethanol p.a. in HPLC-MS grade water, 1 × 200 µL acetonitrile (ACN; HPLC gradient grade)) using a device for handling of magnetic particles [patent US20100200405A1]. The ACN of the last washing step was completely removed by aspiration without letting the beads dry out.
(§5) Tryptic digest was performed on-bead by resuspending (use of an ultrasound bath may be required) the beads in 20 µL 50 mM TEAB in HPLC-MS grade water containing 0.1 µg Trypsin/Lys-C mix and 16.5 h incubation at 37 °C and 1000 rpm (Eppendorf ThermoMixer C, covering the tubes with aluminum foil to minimize condensation in the lids). Tryptic fragmentation of proteins was optimized by addition of another 0.1 µg of Trypsin/Lys-C mix in 2 µL 50 mM TEAB and 4 h incubation at 37 °C and 1000 rpm. After centrifugation for about 1 min in a table top centrifuge and magnetic concentration and retention of the beads at the inner tube wall, the supernatants containing the peptides were transferred into new PCR tubes (of tube strips) and were stored at −80 °C. The beads were discarded.
(§6) Half of the peptide samples (11 µL containing about 2.5 µg peptides) were transferred into new PCR tubes (of tube strips) and allowed to equilibrate to r.t. TMT labeling reagents were reconstituted as described for the TPP-TR samples, and 1 µL each was added to the reconstituted peptides according to the following scheme and homogenized immediately by aspiration and dispensing:
(§7) Peptide separation was performed as described above for the analysis of TPP-TR samples. […]

POR = target: T2, POR (Homo sapiens, UniProt P16435); experiment: TPP-CCR in living HL-60 cells; format: cell-based
T2 construct: endogenous in cells; host or cells: HL-60 (ATCC CCL-240)
T2 sequence (P16435 1-677): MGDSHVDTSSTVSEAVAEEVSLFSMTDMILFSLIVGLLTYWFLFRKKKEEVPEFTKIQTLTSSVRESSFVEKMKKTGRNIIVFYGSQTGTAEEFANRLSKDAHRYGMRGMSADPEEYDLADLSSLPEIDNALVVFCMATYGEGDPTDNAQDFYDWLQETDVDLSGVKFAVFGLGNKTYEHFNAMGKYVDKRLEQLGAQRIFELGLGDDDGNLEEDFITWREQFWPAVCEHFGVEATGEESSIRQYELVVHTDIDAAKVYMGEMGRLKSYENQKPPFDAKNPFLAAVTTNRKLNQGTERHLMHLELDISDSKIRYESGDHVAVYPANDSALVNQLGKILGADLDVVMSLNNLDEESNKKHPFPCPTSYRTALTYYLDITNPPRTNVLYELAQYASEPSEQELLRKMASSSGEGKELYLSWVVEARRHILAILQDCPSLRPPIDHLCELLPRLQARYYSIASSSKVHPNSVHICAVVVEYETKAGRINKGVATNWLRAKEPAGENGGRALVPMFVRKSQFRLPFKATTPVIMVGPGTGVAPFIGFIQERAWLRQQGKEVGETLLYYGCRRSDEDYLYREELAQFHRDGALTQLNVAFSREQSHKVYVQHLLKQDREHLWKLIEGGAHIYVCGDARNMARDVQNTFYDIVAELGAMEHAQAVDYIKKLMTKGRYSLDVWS
Excerpt: as §1, §2, §3, §4, §5, §6, §7

[1] = living HL-60 cells, […] °C, TMT-MS

T1 sequence (Q9BTT0 whole entry): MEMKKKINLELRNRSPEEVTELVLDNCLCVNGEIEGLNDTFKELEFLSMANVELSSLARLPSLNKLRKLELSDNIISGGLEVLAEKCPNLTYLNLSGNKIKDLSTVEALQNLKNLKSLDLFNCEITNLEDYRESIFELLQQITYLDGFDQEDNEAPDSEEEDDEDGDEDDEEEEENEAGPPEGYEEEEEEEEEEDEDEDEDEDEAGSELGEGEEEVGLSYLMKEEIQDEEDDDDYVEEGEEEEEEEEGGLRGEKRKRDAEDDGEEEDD

Cc1cnc(Nc2ccc(F)cc2Cl)nc1-c1c[nH]c(C(=O)N[C@H](CO)c2cccc(Cl)c2)c1 [ERK 11e]
Hill slope (ANP32E; TPP-CCR, living cells, ANP32E): 0.58 | Hill slope (ANP32E) (ANP32E; [1]): 0.58 | EC50 (ANP32E; living HL-60 cells, […] °C, TMT-MS, read-out: pEC50 (ANP32E) (converted)): 166 nM | Hill slope (POR; TPP-CCR, living cells, POR): 0.73 | EC50 (POR; [1]): 1290 nM | Hill slope (POR) (POR; [1]): 0.73
